The test system of assay [1] is Streptococcus pneumoniae (ATCC 49619). The assay is described as follows: Antibacterial MIC assay (microbroth dilution, CLSI). Format: cell-based. The procedure, abridged:
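CLSI broth microdilution: 2-fold compound dilutions in cation-adjusted Mueller-Hinton broth supplemented with 3% lysed horse blood for S. pneumoniae, inoculum 5×10^5 CFU/mL from a 0.5 McFarland direct colony suspension, with growth control.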

In assay [2] the test system is Staphylococcus aureus, MRSA (ATCC 33591). The description is as above. Format: cell-based. As to conditions: read-out: MIC Staphylococcus aureus, MRSA (ATCC 33591). The gist of the method: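 Microbroth dilution per CLSI M07-A10/M100-S25 in cation-adjusted Mueller-Hinton broth, with 3% lysed horse blood added for S. pneumoniae. Inoculum from a 0.5 McFarland direct colony suspension, diluted to 5×10^5 CFU/mL in the well. Compounds were 2-fold serially diluted; MIC read against a growth control.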

Setting [3] is: ATCC49619, microbroth dilution, 3% lysed horse blood, 35° C. for 16-20 hours, read-out: MIC Streptococcus pneumoniae (ATCC 49619).
[4] abbreviates: microbroth dilution, cation-adjusted Mueller-Hinton broth, 35° C. for 16-20 hours.
The mark [5] stands for this setting: ATCC49619, read-out: MIC Streptococcus pneumoniae (ATCC 49619).

≈ marks a conversion by molar mass, not a printed value. Like-named read-outs stand apart in the source and are kept apart here.

Experimental findings from US10919916B2, “Boron-containing small molecules” (Bill & Melinda Gates Foundation, priority 2016, dated 2021) are described below.

A word on the MIC: it is the lowest concentration that inhibits growth of the organism. As to `C=C[C@]1(C)C[C@@H](OC(=O)COc2ccc3c(c2)B(O)OCC3)[C@]2(C)[C@H](C)CC[C@]3(CCC(=O)[C@H]32)[C@@H](C)[C@@H]1O` [Compound 69, (3aR,4R,5R,7S,8S,9R,9aS,12R)-8-hydroxy-4,7,9,12-tetramethyl-3-oxo-7-vinyldecahydro-4,9a-propanocyclopenta[8]annulen-5-yl 2-((1-hydroxy-3,4-dihydro-1H-benzo[c][1,2]oxaborinin-7-yl)oxy)acetate], the MIC in assay [1] (setting [3]) and in assay [2] (setting [4]) was less than 0.25 µg/mL in each case.

With `C=C[C@]1(C)C[C@@H](OC(=O)COc2ccc3c(c2)B(O)N(C(=O)OC(C)(C)C)N=C3)[C@]2(C)[C@H](C)CC[C@]3(CCC(=O)[C@H]32)[C@@H](C)[C@@H]1O` [Compound 71, tert-butyl 1-hydroxy-7-(2-(((3aR,4R,5R,7S,8S,9R,9aS,12R)-8-hydroxy-4,7,9,12-tetramethyl-3-oxo-7-vinyldecahydro-4,9a-propanocyclopenta[8]annulen-5-yl)oxy)-2-oxoethoxy)benzo[d][1,2,3]diazaborinine-2(1H)-carboxylate], the minimal inhibitory concentration (MIC) in assay [1] (setting [5]) and in assay [2] was less than 0.25 µg/mL each time.

`C=C[C@]1(C)C[C@@H](OC(=O)COc2ccc3c(c2)B(O)NN=C3)[C@]2(C)[C@H](C)CC[C@]3(CCC(=O)[C@H]32)[C@@H](C)[C@@H]1O` [Compound 72, (3aR,4R,5R,7S,8S,9R,9aS,12R)-8-hydroxy-4,7,9,12-tetramethyl-3-oxo-7-vinyldecahydro-4,9a-propanocyclopenta[8]annulen-5-yl 2-((1-hydroxy-1,2-dihydrobenzo[d][1,2,3]diazaborinin-7-yl)oxy)acetate]: the MIC in assay [1] (setting [5]) and in assay [2] was less than 0.25 µg/mL each time.

Consider `C=C[C@]1(C)C[C@@H](OC(=O)COc2ccc3c(c2)B(O)N(S(C)(=O)=O)N=C3)[C@]2(C)[C@H](C)CC[C@]3(CCC(=O)[C@H]32)[C@@H](C)[C@@H]1O` [Compound 75, (3aR,4R,5R,7S,8S,9R,9aS,12R)-8-hydroxy-4,7,9,12-tetramethyl-3-oxo-7-vinyldecahydro-4,9a-propanocyclopenta[8]annulen-5-yl 2-((1-hydroxy-2-(methylsulfonyl)-1,2-dihydrobenzo[d][1,2,3]diazaborinin-7-yl)oxy)acetate], for which the minimum inhibitory concentration (MIC) was 0.5 to 2 µg/mL (≈ 0.833 to 3.33 µM) in assay [1] (setting [5]) and less than 0.25 µg/mL in assay [2].

As for `C=C[C@]1(C)C[C@@H](OC(=O)COc2ccc3c(c2F)B(O)N(S(C)(=O)=O)N=C3)[C@]2(C)[C@H](C)CC[C@]3(CCC(=O)[C@H]32)[C@@H](C)[C@@H]1O` [Compound 80, (3aR,4R,5R,7S,8S,9R,9aS,12R)-8-hydroxy-4,7,9,12-tetramethyl-3-oxo-7-vinyldecahydro-4,9a-propanocyclopenta[8]annulen-5-yl 2-((8-fluoro-1-hydroxy-2-(methylsulfonyl)-1,2-dihydrobenzo[d][1,2,3]diazaborinin-7-yl)oxy)acetate], the figures for the minimum inhibitory concentration (MIC) in assay [1] (setting [5]) and in assay [2] were 0.5 to 2 µg/mL (≈ 0.808 to 3.23 µM) and less than 0.25 µg/mL, respectively.

For the molecule `C=C[C@]1(C)C[C@@H](OC(=O)COc2ccc3c(c2)B(O)N(C)N=C3)[C@]2(C)[C@H](C)CC[C@]3(CCC(=O)[C@H]32)C[C@@H]1O` [Compound 83, (3aR,4R,5R,7S,8S,9aS,12R)-8-hydroxy-4,7,12-trimethyl-3-oxo-7-vinyldecahydro-4,9a-propanocyclopenta[8]annulen-5-yl 2-((1-hydroxy-2-methyl-1,2-dihydrobenzo[d][1,2,3]diazaborinin-7-yl)oxy)acetate], the minimal inhibitory concentration (MIC) in assay [1] (setting [3]) and in assay [2] (setting [4]) was less than 0.25 µg/mL throughout.

For the molecule `C=C[C@]1(C)C[C@@H](OC(=O)COc2ccc3c(c2F)B(O)N(C)N=C3)[C@]2(C)[C@H](C)CC[C@]3(CCC(=O)[C@H]32)[C@@H](C)[C@@H]1O` [Compound 85, (3aR,4R,5R,7S,8S,9R,9aS,12R)-8-hydroxy-4,7,9,12-tetramethyl-3-oxo-7-vinyldecahydro-4,9a-propanocyclopenta[8]annulen-5-yl 2-((8-fluoro-1-hydroxy-2-methyl-1,2-dihydrobenzo[d][1,2,3]diazaborinin-7-yl)oxy)acetate], the MIC in assay [1] (setting [5]) and in assay [2] was less than 0.25 µg/mL throughout.

`C=C[C@]1(C)C[C@@H](OC(=O)COc2ccc3c(c2)B(O)N(C(C)=O)N=C3)[C@]2(C)[C@H](C)CC[C@]3(CCC(=O)[C@H]32)[C@@H](C)[C@@H]1O` [Compound 87, (3aR,4R,5R,7S,8S,9R,9aS,12R)-8-hydroxy-4,7,9,12-tetramethyl-3-oxo-7-vinyldecahydro-4,9a-propanocyclopenta[8]annulen-5-yl 2-((2-acetyl-1-hydroxy-1,2-dihydrobenzo[d][1,2,3]diazaborinin-7-yl)oxy)acetate]: the MIC in assay [1] (setting [5]) and in assay [2] was less than 0.25 µg/mL throughout.

In the case of `C=C[C@]1(C)C[C@@H](OC(=O)COc2ccc3c(c2F)B(O)N(C(C)=O)N=C3)[C@]2(C)[C@H](C)CC[C@]3(CCC(=O)[C@H]32)[C@@H](C)[C@@H]1O` [Compound 89, (3aR,4R,5R,7S,8S,9R,9aS,12R)-8-hydroxy-4,7,9,12-tetramethyl-3-oxo-7-vinyldecahydro-4,9a-propanocyclopenta[8]annulen-5-yl 2-((2-acetyl-8-fluoro-1-hydroxy-1,2-dihydrobenzo[d][1,2,3]diazaborinin-7-yl)oxy)acetate], the MIC in assay [1] (setting [5]) and in assay [2] was less than 0.25 µg/mL in each case.

For the molecule `C=C[C@]1(C)C[C@@H](OC(=O)COc2ccc3c(c2)B(O)N(C(=O)OC)N=C3)[C@]2(C)[C@H](C)CC[C@]3(CCC(=O)[C@H]32)[C@@H](C)[C@@H]1O` [Compound 91, Methyl 1-hydroxy-7-(2-(((3aR,4R,5R,7S,8S,9R,9aS,12R)-8-hydroxy-4,7,9,12-tetramethyl-3-oxo-7-vinyldecahydro-4,9a-propanocyclopenta[8]annulen-5-yl)oxy)-2-oxoethoxy)benzo[d][1,2,3]diazaborinine-2(1H)-carboxylate], the figures for the MIC in assay [1] (setting [5]) and in assay [2] were 0.5 to 2 µg/mL (≈ 0.861 to 3.45 µM) and less than 0.25 µg/mL, respectively.

On to `C=C[C@]1(C)C[C@@H](OC(=O)COc2ccc3c(c2F)B(O)N(C(=O)OC)N=C3)[C@]2(C)[C@H](C)CC[C@]3(CCC(=O)[C@H]32)[C@@H](C)[C@@H]1O` [Compound 93, Methyl 8-fluoro-1-hydroxy-7-(2-(((3aR,4R,5R,7S,8S,9R,9aS,12R)-8-hydroxy-4,7,9,12-tetramethyl-3-oxo-7-vinyldecahydro-4,9a-propanocyclopenta[8]annulen-5-yl)oxy)-2-oxoethoxy)benzo[d][1,2,3]diazaborinine-2(1H)-carboxylate], for which the values for the MIC in assay [1] (setting [5]) and in assay [2] were 0.5 to 2 µg/mL (≈ 0.835 to 3.34 µM) and less than 0.25 µg/mL, respectively.

Turning to `C=C[C@]1(C)C[C@@H](OC(=O)COc2ccc3c(c2C)B(O)N(C(=O)OC)N=C3)[C@]2(C)[C@H](C)CC[C@]3(CCC(=O)[C@H]32)[C@@H](C)[C@@H]1O` [Compound 94, Methyl 1-hydroxy-7-(2-(((3aR,4R,5R,7S,8S,9R,9aS,12R)-8-hydroxy-4,7,9,12-tetramethyl-3-oxo-7-vinyldecahydro-4,9a-propanocyclopenta[8]annulen-5-yl)oxy)-2-oxoethoxy)-8-methylbenzo[d][1,2,3]diazaborinine-2(1H)-carboxylate], the MIC is 0.5 to 2 µg/mL (≈ 0.841 to 3.36 µM) in assay [1] (setting [5]) and less than 0.25 µg/mL in assay [2].
